Data published in US20240368668A1, “SUBSTRATES AND BIOMARKERS OF ADAMTS7” (The Broad Institute, Inc., priority 2021, published 2024).
Square brackets hold non-standard residues; d marks the D form. Ends that are not written are not given here. deamidated = deamidated asparagine; Met(O) = CS(=O)CC[C@H](N)C(=O)O

tested on: mouse ADAMTS7; assay: TMT10 TAILS N-terminomics, SMC1 experiment (Ad-mADAMTS7 WT vs EQ vs Luc, technical replicates, trypsin digest); type: cell-based; conditions: TAILS HC Overlap; SMC1; log fold change mouse ADAMTS7 WT over catalytically inactive EQ
In short: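 Full-length mouse ADAMTS7 (WT or E373Q mutant, C-terminal 3xFLAG) or luciferase was transduced via adenovirus, 50 MOI, into HCA-SMC (SMC1, SMC2) or HUVEC. SMC1: pooled media, technical triplicates 400 ug; SMC2: process triplicates 300 ug; HUVEC: process triplicates 200 ug, bFGF2 10 ng/ml.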

Substance | SMC1 logFC.mWT.over.mEQ
SERBP1_56 (QAAAQTNSNAAGKQLR; listed as Homo sapiens) | 4.06
SRGN_59 (LLPGESNKIPR; listed as Homo sapiens) | 4.33
THBS2_290 (LSENLKR; listed as Homo sapiens) | 4.05
VIM_314 (QESTEYR; listed as Homo sapiens) | 2.60
VIM_333 (LKGTNESLER; listed as Homo sapiens) | 4.39

same assay, conditions: TAILS neo-N-terminal peptide abundance; log fold change, Ad-mADAMTS7 WT over EQ

Substance | logFC.mWT.over.mEQ
CDC37_43 (FQKEKEELDR; listed as Homo sapiens) | 1.88
CDH11_467 (HQEAKVPVAIR; listed as Homo sapiens) | 2.06
CLEC11A_50 (HLQEALGLPAGR; listed as Homo sapiens) | 1.42
COL1A2_80 (QYDGKGVGLGPGPMGLMGPR; listed as Homo sapiens) | 2.36
COL1A2_91 (GPMGLMGPR; listed as Homo sapiens) | 1.16
COL1A2_113 (FQGPAGEPGEPGQTGPAGAR; listed as Homo sapiens) | 2.27
COL1A2_270 (VGNAGPAGPAGPR; listed as Homo sapiens) | 2.82
COL1A2_305 (LTGAKGAAGLPGVAGAPGLPGPR; listed as Homo sapiens) | 1.63
COL1A2_389 (SAGPPGPPGLR; listed as Homo sapiens) | 0.72
COL1A2_425 (ASGPAGVR; listed as Homo sapiens) | 1.34
COL1A2_630 (VGTAGPSGPSGLPGER; listed as Homo sapiens) | 1.45
COL1A2_681 (VGAPGPAGATGDR; listed as Homo sapiens) | 1.60
COL1A2_731 (AAGQPGAKGER; listed as Homo sapiens) | 1.03
COL1A2_866 (LLGAPGILGLPGSR; listed as Homo sapiens) | 3.72
COL1A2_960 (AGAPGPHGPVGPAGKHGNR; listed as Homo sapiens) | 2.91
COL1A2_1028 (LQGLPGIAGHHGDQGAPGSVGPAGPR; listed as Homo sapiens) | 1.79
COL1A2_1037 (HHGDQGAPGSVGPAGPR; listed as Homo sapiens) | 3.09
COL1A2_1127 (SLRPKDYEVDATLKSLNNQIETLLTPEGSR; listed as Homo sapiens) | 2.68
COL4A2_71 (YNGPPGLQGFPGLQGR; listed as Homo sapiens) | 2.14
COL4A2_172 (YALPKEER; listed as Homo sapiens) | 5.21
COL5A1_544 (SQAQAILQQAR; listed as Homo sapiens) | 1.08
COL8A1_90 (MKEIQPAPR; listed as Homo sapiens) | 1.35
COL18A1_1505 (LQPPVVQLHDSNPYPR; listed as Homo sapiens) | 1.42
ECM1_43 (YAAPPSPPLSR; listed as Homo sapiens) | 0.68
LTBP2_1602 (EAGVHFR; listed as Homo sapiens) | 0.99
MAN2A1_51 (LQEKIDHLER; listed as Homo sapiens) | 1.86

Substance | logFC.mWT.over.mEQ
MAP1B_1065 (LTTPTKQLGAQSPGR; listed as Homo sapiens) | 1.30
MAP4_815 (AVASTGPSSR; listed as Homo sapiens) | 1.19
MAP4_816 (VASTGPSSR; listed as Homo sapiens) | 1.62
MGAT4B_28 (LSGQKGDVVDVYQR; listed as Homo sapiens) | 1.66
MMP1_24 (LETQEQDVDLVQKYLEKYYNLKN(deamidated)DGR; listed as Homo sapiens) | 2.31
NID2_291 (HSSVPLGR; listed as Homo sapiens) | 4.04
NID2_374 (VGGPDLKGQVEPWDER; listed as Homo sapiens) | 4.94
NID2_467 (LEDNIGSNTEVFTYNAANKETCEHNHR; listed as Homo sapiens) | 2.66
NID2_951 (YAYPGAR; listed as Homo sapiens) | 3.92
NUCB1_228 (LKEVWEELDGLDPNR; listed as Homo sapiens) | 1.63
NUCB1_317 (FLASTQR; listed as Homo sapiens) | 4.87
NUCB1_389 (LQQAVLHMEQR; listed as Homo sapiens) | 2.09
OS9_54 ([code q]SQSSDVVIVSSKYKQR; also: modified N-terminal Gln; listed as Homo sapiens) | 2.81
OS9_55 (SQSSDVVIVSSKYKQR; listed as Homo sapiens) | 2.29
PAPPA_41 (AAGPATCATR; listed as Homo sapiens) | 3.48
PDLIM4_104 (IDPEIQDGSPTTSR; listed as Homo sapiens) | 1.13
POLR3G_88 (LFCSHWSHIPGFK; listed as Homo sapiens) | 1.51
POSTN_413 (FSDDTLSMDQR; listed as Homo sapiens) | 2.31
POSTN_754 (IITGPEIKYTR; listed as Homo sapiens) | 1.68
POSTN_790 (FIEGGDGHLFEDEEIKR; listed as Homo sapiens) | 1.18
POSTN_807 (LLQGDTPVR; listed as Homo sapiens) | 1.17
PPP1R18_295 (LSETLTR; listed as Homo sapiens) | 3.68
PSAP_171 (F[Met(O)]ANIPLLLYPQDGPR; listed as Homo sapiens) | 1.03
PXDN_1341 (SYQEDKPTKKTR; listed as Homo sapiens) | 5.26
PXDN_1393 (QKTITDLR; listed as Homo sapiens) | 4.77
